This is an account of results in patent US12459932B2, “KIF18A inhibitors” (AMGEN INC., priority 2018, dated 2025).

In this assay the target is T1, Recombinant human KIF18A (1-467 His-tagged) (Homo sapiens, UniProt Q8NI77).
T1 construct: Recombinant human KIF18A (1-467 His-tagged) protein; His
Put plainly: KIF18A Enzyme Assay: microtubule-stimulated ATPase activity (ADP-Glo). The format is biochemical. The conditions noted are these: 30 nM KIF18A, 30 μg/mL pig microtubules, ATP 75 μM (Km), ADP-Glo luminescence. The method in brief:
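Measures microtubule-stimulated ATPase activity as ADP formed, detected by luminescence. Compounds were tested as 2-fold serial dilutions over 22 points. IC50 values came from four-parameter logistic fits.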
For orientation: In ADP-Glo the light output rises with the ADP produced.

What is called IC50 is the point on the concentration scale where inhibition reaches its midpoint.

T1 sequence (Q8NI77 1-467): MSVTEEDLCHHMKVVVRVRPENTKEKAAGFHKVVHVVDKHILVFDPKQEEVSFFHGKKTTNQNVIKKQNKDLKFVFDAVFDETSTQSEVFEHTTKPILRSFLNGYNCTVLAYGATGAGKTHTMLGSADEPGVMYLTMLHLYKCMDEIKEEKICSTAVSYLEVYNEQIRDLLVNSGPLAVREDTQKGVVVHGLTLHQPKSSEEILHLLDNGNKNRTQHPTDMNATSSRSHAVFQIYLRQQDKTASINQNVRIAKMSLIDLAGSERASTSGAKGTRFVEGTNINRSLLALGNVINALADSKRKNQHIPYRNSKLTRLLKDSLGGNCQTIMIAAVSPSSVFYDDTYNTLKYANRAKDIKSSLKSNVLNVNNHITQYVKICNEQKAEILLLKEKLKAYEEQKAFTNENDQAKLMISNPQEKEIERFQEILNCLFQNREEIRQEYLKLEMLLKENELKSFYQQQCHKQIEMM
T1 sequence (P02550 whole entry partner): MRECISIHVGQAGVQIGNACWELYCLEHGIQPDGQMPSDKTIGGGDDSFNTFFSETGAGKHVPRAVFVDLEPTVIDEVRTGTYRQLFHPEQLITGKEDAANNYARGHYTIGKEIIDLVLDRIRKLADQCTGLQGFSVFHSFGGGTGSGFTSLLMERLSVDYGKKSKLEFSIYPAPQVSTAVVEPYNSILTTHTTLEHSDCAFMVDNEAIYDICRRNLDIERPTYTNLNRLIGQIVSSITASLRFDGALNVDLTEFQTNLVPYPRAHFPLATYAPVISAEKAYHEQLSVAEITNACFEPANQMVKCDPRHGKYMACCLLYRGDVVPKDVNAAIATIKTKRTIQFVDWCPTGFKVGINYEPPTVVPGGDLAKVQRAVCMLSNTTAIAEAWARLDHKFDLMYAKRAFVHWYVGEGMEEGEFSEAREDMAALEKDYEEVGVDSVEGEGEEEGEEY
T1 sequence (P02554 whole entry partner): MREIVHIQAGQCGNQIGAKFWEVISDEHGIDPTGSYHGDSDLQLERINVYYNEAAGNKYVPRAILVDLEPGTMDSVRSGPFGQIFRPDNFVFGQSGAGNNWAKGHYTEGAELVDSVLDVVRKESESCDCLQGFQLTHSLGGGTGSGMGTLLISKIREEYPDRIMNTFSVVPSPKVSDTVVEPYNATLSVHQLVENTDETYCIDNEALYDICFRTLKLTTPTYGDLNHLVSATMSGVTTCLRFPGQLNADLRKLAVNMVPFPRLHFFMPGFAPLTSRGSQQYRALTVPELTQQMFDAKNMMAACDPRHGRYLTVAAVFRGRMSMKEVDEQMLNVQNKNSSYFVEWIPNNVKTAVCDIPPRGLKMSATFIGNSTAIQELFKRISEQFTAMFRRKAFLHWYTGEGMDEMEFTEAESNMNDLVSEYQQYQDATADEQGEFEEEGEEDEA

In the case of `CC1(S(=O)(=O)Nc2ccc(C(=O)Nc3cccc(N4CCCCC4)n3)c(N3CCC4(CC3)CC4)c2)CC1` [Example 3-17, 4-((1-Methylcyclopropane)-1-sulfonamido)-N-(6-(piperidin-1-yl)pyridin-2-yl)-2-(6-azaspiro[2.5]octan-6-yl)benzamide], the IC50 amounted to 0.034 µM.

For the compound `Cc1cc(NC(=O)c2ccc(NS(=O)(=O)C(C)(C)C)cc2N2CCC3(CC2)CC3)nc(N2CCC(F)(F)CC2)c1` [Example 7-22, N-(6-(4,4-Difluoropiperidin-1-yl)-4-methylpyridin-2-yl)-4-((1,1-dimethylethyl)sulfonamido)-2-(6-azaspiro[2.5]octan-6-yl)benzamide], the IC50 worked out at 0.103 µM.

Regarding `Cc1cc(NC(=O)c2ccc(S(=N)(=O)C3CC3)cc2N2CCC3(CC2)CC3)nc(N2CCO[C@H](C)C2)c1` (stereo in doubt) [Example 29-2, 2-(6-Azaspiro[2.5]octan-6-yl)-4-(R-cyclopropylsulfonimidoyl)-N-(4-methyl-6-((2R)-2-methyl-4-morpholinyl)-2-pyridinyl)benzamide], the IC50 is 0.059 µM.

In the case of `O=C(Nc1cccc(N2CCOCC2)n1)c1ccc(NS(=O)(=O)CCO)cc1N1CCC2(CC1)CC2` [Example 7-20, 4-((2-Hydroxyethyl)sulfonamido)-N-(6-morpholinopyridin-2-yl)-2-(6-azaspiro[2.5]octan-6-yl)benzamide], the IC50 was 0.036 µM.

As to `Cc1cc(NC(=O)c2ccc(NS(=O)(=O)CCO)cc2N2CCC3(CC2)CC3)nc(N2CCO[C@H](C)C2)c1` [Example 7-18, (R)-4-((2-Hydroxyethyl)sulfonamido)-N-(4-methyl-6-(2-methylmorpholino)pyridin-2-yl)-2-(6-azaspiro[2.5]octan-6-yl)benzamide], the IC50 was 0.074 µM.

As for `O=C(Nc1cccc(N2CCC(F)(F)CC2)n1)c1ccc(NS(=O)(=O)CCO)cc1N1CCC2(CC1)CC2` [Example 7-26, N-(6-(4,4-Difluoropiperidin-1-yl)pyridin-2-yl)-4-((2-hydroxyethyl)sulfonamido)-2-(6-azaspiro[2.5]octan-6-yl)benzamide], the IC50 stood at 0.023 µM.

With `Cc1cc(NC(=O)c2ccc(NS(=O)(=O)C3COC3)cc2N2CCC3(CC2)CC3)nc(N2CC(F)(F)C2)c1` [Example 7-32, N-(6-(3,3-Difluoroazetidin-1-yl)-4-methylpyridin-2-yl)-4-(oxetane-3-sulfonamido)-2-(6-azaspiro[2.5]octan-6-yl)benzamide], the IC50 stood at 0.025 µM.

Regarding `CC(C)(C)NS(=O)(=O)c1cccc(NC(=O)c2ccc(S(C)(=O)=O)cc2N2CCC3(CC2)CC3)n1` [Example 4-8, N-(6-(N-(tert-Butyl)sulfamoyl)pyridin-2-yl)-4-(methylsulfonyl)-2-(6-azaspiro[2.5]octan-6-yl)benzamide], the IC50 stood at 0.076 µM.

Consider `Cc1cc(NC(=O)c2ccc(S(=O)(=O)NC3(C)COC3)cc2N2CCC3(CC2)CC3)nc(C(C)(C)O)c1` [Example 4-18, N-(6-(2-Hydroxypropan-2-yl)-4-methylpyridin-2-yl)-4-(N-(3-methyloxetan-3-yl)sulfamoyl)-2-(6-azaspiro[2.5]octan-6-yl)benzamide], for which the IC50 was found to be 0.089 µM.

On to `Cc1cc(NC(=O)c2ccc(NS(=O)(=O)[C@@H](C)CO)cc2N2CCC3(CC2)CC3)nc(N2CC(F)(F)C2)c1` (single isomer, unassigned) [Example 9-6], for which the IC50 came to 0.057 µM.

For `CC1(NS(=O)(=O)c2ccc(C(=O)Nc3cccc(C(C)(C)O)n3)c(N3CCC4(CC3)CC4)c2)COC1` [Example 4-2, N-(6-(2-Hydroxypropan-2-yl)pyridin-2-yl)-4-(N-(3-methyloxetan-3-yl)sulfamoyl)-2-(6-azaspiro[2.5]octan-6-yl)benzamide], the IC50 worked out at 0.08 µM.

With `C[C@@H]1CN(c2cccc(NC(=O)c3ccc(S(=N)(=O)C4CC4)cc3N3CCC4(CC3)CC4)n2)CCO1` (single isomer, unassigned) [Example 12-2], the IC50 was determined as 0.043 µM.
